Reference: a melting point compilation (Tetko et al.; mined from patent text by program, amines drawn as free bases though some values may be those of a salt)

Compared with `CCOC12CCC(=O)C3(C)Oc4c(OC)ccc5c4C31CCN(CCc1ccccc1)C2C5` (configuration not stated), `COc1cc2c(cc1S(=O)(=O)c1ccccc1)[C@@H](N1CCCCC1=O)[C@H](O)C(C)(C)O2` (relative stereo) is higher in melting point: 86 to 89 °C for the first, 157 to 158 °C for the second.

Compared with `CCOC(=O)c1cn(C)c2cnc3c(F)c(N4CCC(O)(c5cccc(C(F)(F)F)c5)CC4)ccc3c2c1=O`, `Cc1nc(NC(=O)c2cnn3c(C(F)(F)F)cc(-c4ccc(C(F)(F)F)cc4)nc23)sc1S(=O)(=O)NC(C)(C)CO` is lower in melting point: over 260 °C for the first, 257 °C for the second.

First: Cc1c(SCc2ccco2)ccnc1CSc1nc2ccccc2[nH]1
Second: Clc1ccc2[nH]c(-c3ccccc3)cc2c1
The melting point of the first is lower: 188 to 189 °C for the first, 195 to 196 °C for the second.

Compared with `CC(C)(Cl)c1cc(C(C)(C)Cl)cc(C(C)(C)Cl)c1`, `CC(C)(C)c1cc2c(cc1O)OC(C(=O)O)=CO2` is higher in melting point: 64 °C for the first, 144 °C for the second.

Compared with `O=C(O)COc1c(Br)cc(C(=O)c2ccc3ccccc3c2)cc1Br`, `CC(=O)Nc1ccc(OCc2nc3ccccc3s2)cc1` is lower in melting point: 188 to 189 °C for the first, 168 to 170 °C for the second.

First: CC(C)CNc1sc(-c2cc[nH]n2)c2c1C(=O)CC(C)(C)C2
Second: COC1=C(c2ccc(C)cc2C)C(=O)CCC1
The melting point of the first is higher: 208 to 210 °C for the first, 122 to 123 °C for the second.

First: COc1ccc(C2CC3(C)C(C=CC3(C)O)C3CCC4=CC(=O)CCC4C23)cc1 (configuration not stated)
Second: N#CN1CCC(C2(O)c3ccccc3CCc3ccc(F)cc32)CC1 (configuration not stated)
The melting point of the first is lower: 192 °C for the first, 250 °C for the second.

First: O=C(O)c1cn(C2CC2)c2cc(N3CCNC(c4cc5ccccc5o4)C3)c(F)cc2c1=O (configuration not stated)
Second: Nc1cc(-n2cc(C(=O)O)c(=O)c3cc(F)c(NC4CC4)c(Cl)c32)c(F)cc1F
The melting point of the first is higher: 203 to 206 °C for the first, 141 to 143 °C for the second.

First: CCCC1=C(C#N)C(c2ccccc2Cl)c2c(n[nH]c2-c2ccc3ccccc3c2)N1 (configuration not stated)
Second: CCOC(=O)Cc1nc(-c2ccccc2)c(-c2ccccc2)o1
The melting point of the first is higher: over 270 °C for the first, 71 to 72 °C for the second.

First: Cc1nc(N2CCCC(Cc3ccc(F)cc3)C2=O)sc1C(=O)NCc1cccc(F)c1 (configuration not stated)
Second: Cc1c(NC(=O)c2ccc(-c3ccc(Cl)s3)cc2)ccc2cc(CN3CCCCC3)cnc12
The melting point of the first is lower: 173 to 175 °C for the first, 212 to 213 °C for the second.

Compared with `O=c1cc(-c2ccc(CO)cc2)oc2ncccc12`, `O=C1COc2ccc(C3=Cc4cccnc4SC3c3ccccc3)cc2N1` (configuration not stated) is higher in melting point: 218 to 219 °C for the first, 242 to 244 °C for the second.

First: NC(=NO)c1ccc(-c2n[nH]c3c2Cc2ccccc2-3)cc1
Second: O=C(O)CCc1ccc(O[C@H]2CCc3ccccc32)cc1
The melting point of the first is higher: over 300 °C for the first, 112 to 113 °C for the second.

Compared with `c1ccc(-c2nc3n(c2-c2ccccn2)CCS3)nc1`, `N#Cc1cc(-c2ccccn2)nn1-c1ccc(NC(=O)c2ccncc2F)cc1` is lower in melting point: 142 to 143 °C for the first, 118 to 119 °C for the second.

First: Cc1cc(C)c2cccc(OCc3c(Cl)ccc(S(=O)(=O)N4CCC[C@H]4C(=O)N4CCN(C(=O)c5ccc(C(N)=NO)cc5)CC4)c3Cl)c2n1
Second: CCc1nc2c(cnn2CC)c(NC2CCOCC2)c1CNC(=O)c1cc(C)cc(C(=O)NCc2ccc(Cl)c(-c3cccc(C=O)c3)c2)c1
The melting point of the first is higher: 161 °C for the first, 153 to 156 °C for the second.

`O=[N+]([O-])c1ccc(I)c(-c2cc([N+](=O)[O-])ccc2I)c1` and `Cc1cc(Br)cc(-c2ccc3c(c2)C(C)(C)OC(=O)N3)c1` cannot be ordered by melting point: 230 to 232 °C for the first, 231 to 233 °C for the second.

First: CCCCOc1ccc(-c2nc(Cl)c(C=O)[nH]2)cc1
Second: CCOP(=O)(CCCOc1ccc(C(=O)O)cc1)OCC
The melting point of the first is lower: 74 °C for the first, 107 to 110 °C for the second.

First: CCN(CC)c1ccc2c(c1)OC(=O)C(C)(C#Cc1ccccc1)C2 (configuration not stated)
Second: CC(C)C(=O)ON(C(=O)NN(C)C)C1c2ccccc2Oc2ccccc21
The melting point of the first is higher: 142 to 144 °C for the first, 131 to 132 °C for the second.

First: CC(C)(O)Cn1c(CONS(C)(=O)=O)nc2c(N)nc3ccccc3c21
Second: CCOc1ccccc1-c1nc2c(C(N)=O)ccnc2c(=O)[nH]1
The melting point of the first is lower: 232 to 234 °C for the first, 295 to 297 °C for the second.

First: COC(=O)CNC(=O)Nc1cc(F)ccc1[N+](=O)[O-]
Second: COC(=O)CC(=O)c1cc(F)c(F)c(F)c1F
The melting point of the first is higher: 133 to 135 °C for the first, 68 to 72 °C for the second.

First: COc1ccc(-n2nc(C(F)(F)F)cc2-c2ccc(S(C)(=O)=O)cc2)cc1Br
Second: COc1ccc(-n2nc(C(F)(F)F)cc2OCN2C(=O)c3c(C(C)C)cc(OC)cc3S2(=O)=O)cc1
The melting point of the first is higher: 164 to 166 °C for the first, 111 to 113 °C for the second.

First: CC(C)(C)C(O)c1cncnc1 (configuration not stated)
Second: CC(C)(C)OC(=O)N1CCCCc2ccc(Cl)nc21
The melting point of the first is lower: 94 to 96 °C for the first, 166 to 168 °C for the second.

First: COc1ccc(Cn2c(N)c(Br)c(=O)[nH]c2=O)cc1
Second: CCCC(Cc1ccc(Cl)cc1)C1(S(=O)(=O)c2ccc(OC)cc2)SC(=O)NC1=O (configuration not stated)
The melting point of the first is higher: 247 °C for the first, 172 to 174 °C for the second.

First: Cc1c(C=NO)c2cc(Cl)ccc2n1-c1ccc(O)cc1
Second: CC=CC(C)=C1C(=O)OC(=O)C1c1cc(C)n(-c2ccc(C)cc2)c1C (configuration not stated)
The melting point of the first is higher: 212 to 213 °C for the first, 129 °C for the second.

First: Cc1ccc(CNc2ncnc3c(N4CCOCC4)nc(N4CCC(N(C)C)CC4)nc23)cc1
Second: Cc1cc(C)cc(NCc2ccc3nc(NC4CCNC(CCN5CCOCC5)C4)n(Cc4nc(C)ccc4O)c3c2)c1 (configuration not stated)
The melting point of the first is lower: 142 to 144 °C for the first, 150 °C for the second.

First: Cc1ccc(CC(=S)N2CCOCC2)cc1
Second: CCCc1nc(OC)c(NC(=S)N2CCN(c3cccc(O)c3)CC2)cc1C
The melting point of the first is higher: 182 to 185 °C for the first, 160 to 162 °C for the second.

Compared with `COC1C(O)C(CO)OC1n1cnc2c(=O)[nH]c(N)nc21` (configuration not stated), `Nc1ccc(C(=O)NC2CCN(CCCn3cnc4c(N)ncnc43)CC2)cc1` is higher in melting point: 236 to 238 °C for the first, 247 to 248 °C for the second.

Compared with `Cc1nc(S(=O)(=O)n2ccc(/C=C/C(=O)NO)c2)cn1C`, `Cc1ccc(S(=O)(=O)NC(=O)C2C(=O)CC(C(C)C)CC2=O)cc1` (configuration not stated) is lower in melting point: 190 to 194 °C for the first, 106 to 108 °C for the second.

First: N#Cc1cc(Cn2cncn2)cc(-c2ccc(OS(N)(=O)=O)cc2)c1
Second: N#Cc1ccc(OCc2ccc(F)cc2)cc1
The melting point of the first is higher: 166 to 167 °C for the first, 82 to 83 °C for the second.

First: COCN(c1cccc2cc(-c3ncn(C)n3)n(COC)c12)S(=O)(=O)c1cccs1
Second: COc1cc(Cc2cnc(N)nc2N)cc(-c2cccc(NS(=O)(=O)c3ccc(N)cc3)c2)c1OC
The melting point of the first is lower: 157 to 158 °C for the first, 223 to 226 °C for the second.

Compared with `Cc1cc(C(F)(F)F)nn1CC(=O)N1CCC(c2csc(NC(=O)Cc3c(F)cccc3Cl)n2)CC1`, `CN1CCN(C(=O)Cn2nc(-c3ccccc3O)nc2-c2ccccc2O)CC1` is lower in melting point: 249 to 251 °C for the first, 199 to 201 °C for the second.

First: O=[N+]([O-])c1cc(OCC2CCCSC2)c(Cl)cc1F (configuration not stated)
Second: COc1cc(N)c(Cl)cc1C(=O)NCC1CCN(CCCCN)CC1
The melting point of the first is lower: 100 to 103 °C for the first, 104 to 107 °C for the second.

Compared with `CCCCCCCCCCCCCCCCC(N)CO` (configuration not stated), `CCCOc1ccccc1C1C(C(=O)OCC)=C(CCC)Nc2n[nH]cc21` (configuration not stated) is higher in melting point: 80.8 to 81.9 °C for the first, 205 °C for the second.

First: O=c1c2c[nH]c3c(c-2nn1-c1ccc(Cl)cc1)CCC3
Second: Cc1ccc(C(=O)N(C)C)cc1-c1nc(NC2CCN(C)CC2)nc2c1CNC(=O)N2c1c(F)cccc1F
The melting point of the first is higher: over 350 °C for the first, 163 to 165 °C for the second.

First: COc1ccc2cc(-c3ccnc(NCCc4ccc(OC)c(OC)c4)n3)cc(N3CCNCC3)c2c1
Second: COc1cc(Nc2nccc(Nc3ccc(OCC(=O)O)cc3)n2)cc(OC)c1OC
The melting point of the first is lower: 138 to 140 °C for the first, 159 °C for the second.

First: Nc1nc(N)nc(C2CCN(Cc3ccccc3)CC2)n1
Second: ON=C1CCC(c2ccccc2)CC1 (configuration not stated)
The melting point of the first is higher: over 260 °C for the first, 110 to 112 °C for the second.

Compared with `O=C1NC(O)(C(Cl)(Cl)Cl)NC1=O`, `O=C(NCCC(F)(F)F)c1nc(Cl)c(Cl)[nH]1` is lower in melting point: 245 °C for the first, 177 °C for the second.

Compared with `COCOc1cc(OC)c(OCOC)c(CCO)c1OC`, `CCOC(=O)CCCOc1nn2c(-c3ccc(OC)cc3)nnc2c2ccccc12` is lower in melting point: 121 to 123 °C for the first, 114 to 117 °C for the second.

First: N=C(N)N1CCC2c3ccccc3CN21 (configuration not stated)
Second: CN1C(=N)N(c2ccccc2)CC1=O
The melting point of the first is higher: 233 to 234 °C for the first, 169 to 170 °C for the second.

First: COc1ccc(/C=C(\C#N)c2ccc(Br)cc2)cc1OC1CCCC1
Second: COC1(c2cnc(Sc3ccc(/C(C)=N/O)cc3)s2)CCOCC1
The melting point of the first is higher: 116 to 119 °C for the first, 114 to 116 °C for the second.

First: CC(=O)Oc1cccc2c1C(=O)c1c(OC(C)=O)cc(C(=O)NOCc3ccccc3)cc1C2=O
Second: CNc1nc(-c2cccc(NC(=O)c3ccccc3O)c2)c2cc(OC)c(OC)cc2n1
The melting point of the first is lower: 192 to 194 °C for the first, 212 to 214 °C for the second.

First: CCCN1C(=O)C(C(=O)Nc2ccc(Cl)cc2)S(=O)(=O)c2ccccc21 (configuration not stated)
Second: CCOC(=O)c1ccc(NC(=O)C(COc2cccnc2)NS(=O)(=O)c2ccc(Cl)cc2)cc1 (racemic)
The melting point of the first is higher: 189 to 190 °C for the first, 119 to 124 °C for the second.

First: Cc1cn(S(=O)(=O)c2ccccc2)c2ccccc12
Second: O=C(O)C1Sc2ccccc2-c2ccccc21 (configuration not stated)
The melting point of the first is lower: 116 to 120 °C for the first, 156 to 159 °C for the second.

First: CCCCN(c1nc(Cl)nc(N(CCCC)C2CC(C)(C)N(OC3CCCCC3)C(C)(C)C2)n1)C1CC(C)(C)N(OC2CCCCC2)C(C)(C)C1
Second: COc1ccc(Cn2c(=O)c3ccccc3n(CCCCN3CCC(OC(c4ccccc4)c4ccccc4)CC3)c2=O)cc1
The melting point of the first is lower: 75 to 82 °C for the first, 99 to 100 °C for the second.

Compared with `CNC(=O)c1c(I)c(NC(C)=O)c(I)c(C(=O)NCCC(=O)O)c1I`, `CC(C)c1ccc(NC(=O)OC(C)(C)C)c(NC(=O)CC(=O)c2cccc(C#N)c2)c1` is lower in melting point: 190 °C for the first, 179 to 180 °C for the second.

Compared with `CCCc1ccc(Br)nn1`, `N#CNC(=S)Nc1ccc(Cl)cc1` is higher in melting point: 35 to 36 °C for the first, over 250 °C for the second.

First: COC(=O)c1coc2c1C(=O)CCC2
Second: NC(=O)NC1(C(=O)O)CCCc2ncc(Cl)cc21 (configuration not stated)
The melting point of the first is lower: 100 to 102 °C for the first, 188 to 190 °C for the second.

Compared with `CC(C)(C)c1cccc(C(C)(C)C)c1OP1OP(Oc2c(C(C)(C)C)cccc2C(C)(C)C)OP(Oc2c(C(C)(C)C)cccc2C(C)(C)C)O1` (configuration not stated), `COC(=O)c1c(C(=O)O)n(-c2ccc(OC(C)C)cc2)c2ccc(Oc3ccc(C(F)(F)F)cc3)cc12` is higher in melting point: 115 to 132 °C for the first, 191 °C for the second.

First: CC1(C)COC(=S)N(Cc2ccccc2NS(=O)(=O)C(F)(F)F)C1
Second: CN(C)CCCN=C1CC(c2ccc(Cl)cc2Cl)Cc2c1c(=O)c1cc(Cl)ccc1n2O (configuration not stated)
The melting point of the first is lower: 130 °C for the first, 172 to 174 °C for the second.

Compound `N#CCc1cc(O)c(O)c(F)c1` has a melting point of 100 to 101 °C.
